Experimental data from patent publication US11957683B2, “Bicyclic compounds” (Aligos Therapeutics, Inc., priority 2021, dated 2024).
pEC50: −log10 of the molar value.

Columns and labels:
[1] = Cell viability by CellTiter-Glo 2.0 (intracellular ATP) in HepG2.117 cells; assay type: cell-based; conditions: human, CellTiter-Glo 2.0, HepG2.117 cells, 3 days incubation
Experimental: (§1) The following assay procedure describes the HBV antiviral assay, using HepG2.117 cells, which carry a stably integrated genotype D HBV genome under the control of a Tet-off promoter, and intracellular HBV DNA quantification as endpoint. Cell viability is assessed in parallel by measuring the intracellular ATP content using CellTiter-Glo 2.0 (Promega).
(§2) On day 1, medium is removed from each well, the test articles are diluted in culture medium without doxcycyline and 100 μL was added to cell culture wells (9 concentrations, 4-fold dilution). For each plate, 6 untreated (merely DMSO) wells are included. The final concentration of DMSO in the culture medium is 2%. Each plate is prepared in duplicate (one for HBV DNA extraction, one for CellTiter-Glo 2.0 measurement). The cells are incubated at 37° C. and 5% CO2 for 3 days.
(§3) On day 4, cell viability is assessed using CellTiter-Glo 2.0 and cell lysates are prepared for HBV DNA extraction and subsequent quantification by qPCR.
Using the other plates, the cell viability is quantified by CellTiter-Glo 2.0 according to the manufacturer's manual. In brief, 100 μL of reagent solution is added to the culture plates and shaken for 2′. The plates are incubated at rt for 10 min and luminescence signal is subsequently measured on a VarioSkan Lux (ThermoFisher) plate reader.
(§4) Cell viability is calculated as follows: % Cell viability=(luminescence value of test sample)/(average luminescence value of 2% DMSO control)×100%. HBV DNA inhibition was calculated as follows: 100−(HBV DNA copy number of test sample)/(average HBV DNA copy number of 2% DMSO control)×100%. No normalization to entecavir is required due to the excellent dynamic window of this assay. The CC50, EC50 and EC90 values were determined by dose-response curves fitted using non-linear regression.

HBV = experiment: HBV-DNA antiviral assay using HepG2.117 cells; assay type: cell-based, HBV genotype D; conditions: Hepatitis B virus, 72 h; HBV DNA inhibition, intracellular HBV DNA by qPCR, HepG2.117 cells, 3 days incubation; read-out: EC50
Experimental: as §1
On day 0, HepG2.117 cells (which are maintained in routine cell culture with doxycycline present in the medium at a final concentration of 1 μg/mL) are seeded in 96-well plates (white with clear bottom) at a density of 2.0×10^4 cells/well (0.1 mL/well) in medium without doxycycline to induce pgRNA transcription and subsequent formation of HBV particles. The cells are incubated at 37° C. and 5% CO2.
as §2, §3
Medium is removed from each well and 100 μL of 0.33% NP-40 in H2O was added to each well. Plates are sealed, incubated at 4° C. for 5 mins, vortexed extensively and centrifuged briefly. Next, 35 μL of lysate is added to 65 μL QuickExtract DNA Extraction Solution (Epicentre) in a PCR plate for each well. PCR plate is incubated at 65° C. for 6 mins, 98° C. for 2 mins and finally cooled to 4° C. HBV DNA is then quantified by qPCR with HBV-specific primers and probes as specified in Table 2 using the Bio-Rad SSOAdvanced Universal Probes Supermix on a CFX96 machine (Bio-Rad). The PCR cycle program consisted of 95° C. for 3 mins, followed by 40 cycles at 95° C. for 10 sec and 60° C. for 30 sec.
A DNA standard is prepared by dilution of an IDT gBlock corresponding to the amplicon with concentrations ranging from 10^2 to 10^8 copies/input (i.e., per 4 μL) and used to generate a standard curve by plotting Cq values vs. HBV DNA standard concentration. The quantity of HBV DNA in each sample is determined by interpolating from the standard curve.
as §4

Row | Compound | CC50 at 3 days [1] | pEC50 (HBV)
1 | C=C[C@H](C)Nc1nc2c(c(=O)n1-c1ccc(C(=O)NC)c(Cl)c1)C[C@@H](C)N(C(=O)c1ccc(Br)c(C(F)(F)F)c1)C2 [Compound 20, 4-((R)-7-(4-bromo-3-(trifluoromethyl)benzoyl)-2-(((S)-but-3-en-2-yl)amino)-6-methyl-4-oxo-5,6,7,8-tetrahydropyrido[3,4-d]pyrimidin-3(4H)-yl)-2-chloro-N-methylbenzamide] | 2.95 µM | > 7.30
2 | C=C[C@@H](C)Nc1nc2c(c(=O)n1-c1ccc(-c3nncn3C)cc1)C[C@@H](C)N(C(=O)c1ccc(Br)c(C(F)(F)F)c1)C2 [Compound 22, (R)-7-(4-bromo-3-(trifluoromethyl)benzoyl)-2-(((R)-but-3-en-2-yl)amino)-6-methyl-3-(4-(4-methyl-4H-1,2,4-triazol-3-yl)phenyl)-5,6,7,8-tetrahydropyrido[3,4-d]pyrimidin-4(3H)-one] | > 50 µM | > 7.30
3 | CNC(=O)c1ccc(-n2c(C#CCC(C)C)nc3c(c2=O)C[C@@H](C)N(C(=O)c2ccc(Br)c(C(F)(F)F)c2)C3)cc1 [Compound 23, (R)-4-(7-(4-bromo-3-(trifluoromethyl)benzoyl)-6-methyl-2-(4-methylpent-1-yn-1-yl)-4-oxo-5,6,7,8-tetrahydropyrido[3,4-d]pyrimidin-3(4H)-yl)-N-methylbenzamide] | 11.7 µM | 6.30 to 7.30
4 | C=C[C@H](C)Nc1nc2c(c(=O)n1-c1ccc(C(=O)NC)cn1)C[C@@H](C)N(C(=O)c1ccc(Br)c(C(F)(F)F)c1)C2 [Compound 24, 6-((R)-7-(4-bromo-3-(trifluoromethyl)benzoyl)-2-(((S)-but-3-en-2-yl)amino)-6-methyl-4-oxo-5,6,7,8-tetrahydropyrido[3,4-d]pyrimidin-3(4H)-yl)-N-methylnicotinamide] | > 0.5 µM | > 7.30
5 | C=C[C@H](C)Nc1nc2c(c(=O)n1-c1ccc3ncn(C)c3c1)C[C@@H](C)N(C(=O)c1ccc(Br)c(C(F)(F)F)c1)C2 [Compound 25, (R)-7-(4-bromo-3-(trifluoromethyl)benzoyl)-2-(((S)-but-3-en-2-yl)amino)-6-methyl-3-(1-methyl-1H-benzo[d]imidazol-6-yl)-5,6,7,8-tetrahydropyrido[3,4-d]pyrimidin-4(3H)-one] | 29.7 µM | > 7.30
6 | C=C[C@H](C)Nc1nc2c(c(=O)n1-c1cnc3c(c1)ncn3C)C[C@@H](C)N(C(=O)c1ccc(Br)c(C(F)(F)F)c1)C2 [Compound 26, (R)-7-(4-bromo-3-(trifluoromethyl)benzoyl)-2-(((S)-but-3-en-2-yl)amino)-6-methyl-3-(3-methyl-3H-imidazo[4,5-b]pyridin-6-yl)-5,6,7,8-tetrahydropyrido[3,4-d]pyrimidin-4(3H)-one] | > 0.5 µM | > 7.30
7 | C=C[C@H](C)Nc1nc2c(c(=O)n1-c1ccc(-c3cnn(C)c3)cc1)C[C@@H](C)N(C(=O)c1ccc(Br)c(C(F)(F)F)c1)C2 [Compound 27, (R)-7-(4-bromo-3-(trifluoromethyl)benzoyl)-2-(((S)-but-3-en-2-yl)amino)-6-methyl-3-(4-(1-methyl-1H-pyrazol-4-yl)phenyl)-5,6,7,8-tetrahydropyrido[3,4-d]pyrimidin-4(3H)-one] | 22.8 µM | > 7.30
8 | C=C[C@H](C)Nc1nc2c(c(=O)n1-c1ccc3c(c1)nc(C)n3C)C[C@@H](C)N(C(=O)c1ccc(Br)c(C(F)(F)F)c1)C2 [Compound 28, (R)-7-(4-bromo-3-(trifluoromethyl)benzoyl)-2-(((S)-but-3-en-2-yl)amino)-3-(1,2-dimethyl-1H-benzo[d]imidazol-5-yl)-6-methyl-5,6,7,8-tetrahydropyrido[3,4-d]pyrimidin-4(3H)-one] | 30.5 µM | > 7.30
9 | C=CC(C)(C)Nc1nc2c(c(=O)n1-c1ccc3c(c1)ncn3C)C[C@@H](C)N(C(=O)c1ccc(Br)c(C(F)(F)F)c1)C2 [Compound 29, (R)-7-(4-bromo-3-(trifluoromethyl)benzoyl)-6-methyl-3-(1-methyl-1H-benzo[d]imidazol-5-yl)-2-((2-methylbut-3-en-2-yl)amino)-5,6,7,8-tetrahydropyrido[3,4-d]pyrimidin-4(3H)-one] | 30.5 µM | > 7.30
10 | C=C[C@H](C)Nc1nc2c(c(=O)n1-c1ccc(C(=O)NC)nn1)C[C@@H](C)N(C(=O)c1ccc(Br)c(C(F)(F)F)c1)C2 [Compound 30, 6-((R)-7-(4-bromo-3-(trifluoromethyl)benzoyl)-2-(((S)-but-3-en-2-yl)amino)-6-methyl-4-oxo-5,6,7,8-tetrahydropyrido[3,4-d]pyrimidin-3(4H)-yl)-N-methylpyridazine-3-carboxamide] | > 50 µM | > 7.30
11 | C=C[C@H](C)Nc1nc2c(c(=O)n1-c1cc3ncn(C)c3cc1F)C[C@@H](C)N(C(=O)c1ccc(Br)c(C(F)(F)F)c1)C2 [Compound 32a, (R)-7-(4-bromo-3-(trifluoromethyl)benzoyl)-2-(((S)-but-3-en-2-yl)amino)-3-(6-fluoro-1-methyl-1H-benzo[d]imidazol-5-yl)-6-methyl-5,6,7,8-tetrahydropyrido[3,4-d]pyrimidin-4(3H)-one] | 29.5 µM | > 7.30
12 | C=C[C@H](C)Nc1nc2c(c(=O)n1-c1ccc3c(cnn3C)c1)C[C@@H](C)N(C(=O)c1ccc(Br)c(C(F)(F)F)c1)C2 [Compound 33, (6R)-7-[4-bromo-3-(trifluoromethyl)benzoyl]-6-methyl-2-[[(1S)-1-methylallyl]amino]-3-(1-methylindazol-5-yl)-6,8-dihydro-5H-pyrido[3,4-d]pyrimidin-4-one] | > 50 µM | > 7.30
13 | C=C[C@H](C)Nc1nc2c(c(=O)n1-c1cc(Cl)c3c(cnn3C)c1)C[C@@H](C)N(C(=O)c1ccc(Br)c(C(F)(F)F)c1)C2 [Compound 34] | 11.6 µM | > 7.30
14 | C=C[C@H](C)Nc1nc2c(c(=O)n1-c1ccc3c(c1)ncn3CC(F)(F)F)C[C@@H](C)N(C(=O)c1ccc(Br)c(C(F)(F)F)c1)C2 [Compound 35, (6R)-7-[4-bromo-3-(trifluoromethyl)benzoyl]-6-methyl-2-[[(1S)-1-methylallyl]amino]-3-[1-(2,2,2-trifluoroethyl)benzimidazol-5-yl]-6,8-dihydro-5H-pyrido[3,4-d]pyrimidin-4-one] | 28.5 µM | > 7.30
15 | C=C[C@H](C)Nc1nc2c(c(=O)n1-c1ccn3c(C)nnc3c1)C[C@@H](C)N(C(=O)c1ccc(Br)c(C(F)(F)F)c1)C2 [Compound 36, (6R)-7-[4-bromo-3-(trifluoromethyl)benzoyl]-6-methyl-2-[[(1S)-1-methylallyl]amino]-3-(3-methyl-[1,2,4]triazolo[4,3-a]pyridin-7-yl)-6,8-dihydro-5H-pyrido[3,4-d]pyrimidin-4-one] | > 50 µM | > 7.30
16 | C=C[C@H](C)Nc1nc2c(c(=O)n1-c1ccc(-c3cnn(C)c3)cn1)C[C@@H](C)N(C(=O)c1ccc(Br)c(C(F)(F)F)c1)C2 [Compound 37, (6R)-7-[4-bromo-3-(trifluoromethyl)benzoyl]-6-methyl-2-[[(1S)-1-methylallyl]amino]-3-[5-(1-methylpyrazol-4-yl)-2-pyridyl]-6,8-dihydro-5H-pyrido[3,4-d]pyrimidin-4-one] | > 50 µM | > 7.30
